Reference: PubChem BioAssay (NCI)
Where “and” joins values, the source holds several entries; their conditions need not be identical. Identical values can stand only once.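 1) Cells in 96-well plates. 2) Compound, 48 h, 5 concentrations. 3) Linear interpolation between surrounding doses. 4) Unreached endpoint = highest concentration. GI50 marks 50% less growth. TGI is the concentration that stops growth completely.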

Experiments:
Test in all cases: NCI tumour cell line growth inhibition, 48 h
SN12C renal = system: SN12C renal
IGROV1 ovarian = system: IGROV1 ovarian
HL-60(TB) leukemia = system: HL-60(TB) leukemia
UO-31 renal = system: UO-31 renal
OVCAR-3 ovarian = system: OVCAR-3 ovarian
COLO 205 colon = system: COLO 205 colon
OVCAR-4 ovarian = system: OVCAR-4 ovarian
NCI-H23 lung = system: NCI-H23 lung
MALME-3M melanoma = system: MALME-3M melanoma
MDA-MB-231 breast = system: MDA-MB-231 breast

| SMILES | TGI (SN12C renal) [µM] | TGI (IGROV1 ovarian) | TGI (HL-60(TB) leukemia) | TGI (UO-31 renal) | TGI (OVCAR-3 ovarian) | TGI (COLO 205 colon) | TGI (OVCAR-4 ovarian) | TGI (NCI-H23 lung) [µM] | TGI (MALME-3M melanoma) | TGI (MDA-MB-231 breast) [µM] | GI50 (SN12C renal) | GI50 (IGROV1 ovarian) | GI50 (HL-60(TB) leukemia) | GI50 (UO-31 renal) | GI50 (OVCAR-3 ovarian) | GI50 (COLO 205 colon) | GI50 (OVCAR-4 ovarian) | GI50 (NCI-H23 lung) | GI50 (MALME-3M melanoma) [µM] | GI50 (MDA-MB-231 breast) |
| --- | --- | --- | --- | --- | --- | --- | --- | --- | --- | --- | --- | --- | --- | --- | --- | --- | --- | --- | --- | --- |
| COc1nc(N)nc2c1ncn2C1CC(O)C(CO)O1 (stereo not drawn) | > 100 | > 100 µM | > 100 µM | > 100 µM | > 100 µM | > 100 µM | > 100 µM | > 100 | > 100 µM | > 100 | – | – | – | – | – | – | – | – | – | – |
| O=C(O)c1cccc(S(=O)(=O)NCCO)c1 | > 100 | > 100 µM | > 100 µM | > 100 µM | > 100 µM | > 100 µM | > 100 µM | > 100 | > 100 µM | > 100 | – | – | – | – | – | – | – | – | – | – |
| Cc1c(CN2CCN(C(=O)[C@H](C)O)CC2)sc2c(N3CCOCC3)nc(-c3cnc(N)nc3)nc12 | > 100 | 0.265 µM and 0.377 µM | > 10 µM and 6.81 µM | 1.35 µM and 0.658 µM | 5.4 µM and 2.18 µM | > 5.47 µM and 9.5 µM | 3.86 µM and 1.09 µM | > 100 | 0.847 µM and 0.414 µM | > 40.6 | 0.179 µM and 0.174 µM | 0.0161 µM and 0.0511 µM | 0.146 µM and 0.192 µM | 0.0579 µM and 0.053 µM | 0.202 µM and 0.182 µM | 0.224 µM and 0.233 µM | 0.346 µM and 0.144 µM | 0.389 µM and 0.181 µM | 0.0506 | 0.515 µM and 0.384 µM |
| NC(=O)c1cc(N2CC2)c([N+](=O)[O-])cc1[N+](=O)[O-] | > 200 | > 200 µM | > 200 µM | > 200 µM | > 200 µM | > 200 µM | > 200 µM | > 200 | > 200 µM | > 200 | > 200 µM | > 200 µM | > 200 µM | > 200 µM | > 200 µM | > 200 µM | > 200 µM | > 200 µM | – | – |
| O=C1Nc2c(Cl)cc(Cl)cc2/C1=N/N=C/c1ccco1 | 82.1 | > 100 µM | > 100 µM | 55.4 µM | 95.1 µM | 73.3 µM | > 100 µM | 75.9 | > 100 µM | 58 | – | – | – | – | – | – | – | – | – | – |
| COc1cnc2c(c1)C(=O)c1c-2n(CCCN2CCCC2)c(=O)c2cc([N+](=O)[O-])ccc12 | 15.3 | 1.36 µM | 1.06 µM | 0.206 µM | 0.901 µM | 13.8 µM | 10.5 µM | 1.25 | 1.15 µM | 2.65 | 0.036 µM | 0.0187 µM | 0.0299 µM | < 0.01 µM | 0.0586 µM | 0.0354 µM | 0.0848 µM | 0.0272 µM | 0.0558 | 0.683 µM |
| CCN1CCN(CCNc2nccc(-c3c(-c4ccc(F)c(O)c4)nc4occn34)n2)S1(=O)=O | > 100 | > 100 µM | > 100 µM | > 100 µM | > 100 µM | > 100 µM | > 100 µM | > 100 | > 100 µM | > 100 | 4.41 µM | 4.06 µM | 4.16 µM | 2.66 µM | 4.44 µM | 4.6 µM | 4.59 µM | 4.12 µM | 3.8 | 32.3 µM |
| COc1cc(-n2ccnc2-c2ccc3ccccc3c2)cc(OC)c1OC | > 59 | > 51.2 µM | > 37.6 µM | 35 µM | 19.4 µM | 0.785 µM | > 86.2 µM | 13.4 | 31.9 µM | 44.1 | 1.64 µM | 0.259 µM | 0.0232 µM | 0.28 µM | 0.0288 µM | < 0.0282 µM | 6.32 µM | 0.223 µM | 3.66 | 0.571 µM |
| COC[C@H](NC(=O)c1cnc(C)s1)C(=O)N[C@@H](COC)C(=O)N[C@@H](Cc1ccccc1)C(=O)[C@@]1(C)CO1 | > 100 | > 100 µM | > 100 µM | > 100 µM | > 86.3 µM | > 100 µM | > 100 µM | > 100 | 64 µM | 39 | 37.6 µM | 38.8 µM | 35 µM | 30.9 µM | 27.5 µM | 37.4 µM | 44.4 µM | 36.6 µM | 22 | 16.2 µM |
| CC(=O)O.CN1[CH-]N(Cc2ccc(C#N)cc2)c2ccccc21.[Ag+] | 38.4 | 46.7 µM | 45.9 µM | 30.3 µM | 30.4 µM | 31.5 µM | 32.8 µM | 58 | 41.5 µM | 36 | 18.9 µM | 20.9 µM | 20.3 µM | 16.2 µM | 16.6 µM | 10.3 µM | 15.8 µM | 20.8 µM | 19.8 | 18.2 µM |
| O=C1c2ccccc2C(=O)N1CCc1ncc(-c2ccccc2)[nH]1 | > 100 | > 100 µM | > 100 µM | > 100 µM | > 100 µM | > 100 µM | > 100 µM | > 100 | > 100 µM | > 100 | – | – | – | – | – | – | – | – | – | – |
| COc1ccc(Nc2nc(NCCNc3ccnc4cc(Cl)ccc34)nc(N3CCOCC3)n2)cc1 | 23.4 | 23.4 µM | 12.7 µM | 14.2 µM | 24.3 µM | 3.33 µM | 24.5 µM | 29.7 | 3.47 µM | 10.2 | 8.73 µM | 8.43 µM | 1.13 µM | 1.33 µM | 11.5 µM | 1.53 µM | 9 µM | 13.7 µM | 1.94 | 2.73 µM |
| NCCCCC(NC(=O)C(N)CCCN=C(N)N)C(=O)NC(CCCCN)C(=O)NC(CCCN=C(N)N)C(=O)NC(CCCN=C(N)N)C(=O)NC(CCC(N)=O)C(=O)NC(CCCN=C(N)N)C(=O)NC(CCCN=C(N)N)C(=O)NC(CCCN=C(N)N)C(=O)NCC(=O)NCC(=O)O (stereo not drawn) | > 50 | > 50 µM | > 50 µM | > 50 µM | > 50 µM | > 50 µM | > 50 µM | > 50 | > 50 µM | > 50 | > 50 µM | > 50 µM | > 50 µM | > 50 µM | > 50 µM | > 50 µM | > 50 µM | > 50 µM | > 50 | > 50 µM |
| OC1CC2CCC(C1)N2CCCN1c2ccccc2Sc2ccc(Cl)cc21 (stereo not drawn) | 13.7 | 5.01 µM | 6.37 µM | 7.09 µM | 8.27 µM | 3.35 µM | 13.6 µM | 8.12 | 3.59 µM | 3.66 | – | – | – | – | – | – | – | – | – | – |
